One test has as its target T1, CK2 (Homo sapiens, UniProt P68400).
T1 construct: purchased Nanosyn (enzymatic panel); SGC in-house recombinant human kinases (DSF panel); Invitrogen (ALK1-6)
The test can be described thus: Nanosyn kinase profiling. Type of test: biochemical. The conditions noted are these: read-out: Percentage inhibition; for inhibition at 0.1 µM: 0.1 µM inhibitor; for inhibition at 1 µM: 1 µM inhibitor. On the procedure:
(§1) Percentage inhibition was determined for each kinase at both 0.1 µM and 1 µM inhibitor concentration (supplemental Table S2). […]. […]. When visualized on a kinase phylogenetic tree, these were primarily clustered within the receptor tyrosine kinases (TKs) as well as the calmodulin-dependent kinases (CAMKs) (Figure 2C).
(§2) Inhibitor selectivity profiling against 200 human kinases at 0.1 and 1 µM inhibitor concentration was performed by Nanosyn (www.nanosyn.com).

The target in a further test is T2, IKK-α (Homo sapiens, UniProt O15111).
T2 construct: purchased Nanosyn (enzymatic panel); SGC in-house recombinant human kinases (DSF panel); Invitrogen (ALK1-6)
T2 sequence (O15111 1-745): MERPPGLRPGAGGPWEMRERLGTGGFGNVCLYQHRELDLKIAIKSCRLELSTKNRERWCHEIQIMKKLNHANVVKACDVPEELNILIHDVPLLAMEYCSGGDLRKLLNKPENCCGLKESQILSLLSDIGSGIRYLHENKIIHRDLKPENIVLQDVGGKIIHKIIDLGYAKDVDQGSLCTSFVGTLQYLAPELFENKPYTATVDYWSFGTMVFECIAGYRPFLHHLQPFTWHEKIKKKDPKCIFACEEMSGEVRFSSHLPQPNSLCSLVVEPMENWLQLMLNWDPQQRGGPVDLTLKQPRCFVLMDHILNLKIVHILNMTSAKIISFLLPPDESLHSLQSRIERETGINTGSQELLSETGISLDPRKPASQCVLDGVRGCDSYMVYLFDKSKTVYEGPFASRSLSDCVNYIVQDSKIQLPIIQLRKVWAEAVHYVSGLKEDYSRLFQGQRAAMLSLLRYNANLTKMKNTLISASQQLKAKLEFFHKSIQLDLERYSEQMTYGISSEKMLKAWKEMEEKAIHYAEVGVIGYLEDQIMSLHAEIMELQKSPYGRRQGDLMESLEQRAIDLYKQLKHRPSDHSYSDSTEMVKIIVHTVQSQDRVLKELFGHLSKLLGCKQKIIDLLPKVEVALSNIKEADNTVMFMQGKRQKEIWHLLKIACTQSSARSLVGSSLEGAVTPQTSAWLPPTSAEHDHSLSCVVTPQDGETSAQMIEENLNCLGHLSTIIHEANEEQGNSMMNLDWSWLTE
The test can be described thus: Nanosyn kinase profiling. The conditions noted are these: read-out: Percentage inhibition; for inhibition at 0.1 µM: 0.1 µM inhibitor; for inhibition at 1 µM: 1 µM inhibitor. Type of test: biochemical. On the procedure:
as §1, §2

The next test addresses T3, IRAK4 (Homo sapiens, UniProt Q9NWZ3).
T3 construct: purchased Nanosyn (enzymatic panel); SGC in-house recombinant human kinases (DSF panel); Invitrogen (ALK1-6)
T3 sequence (Q9NWZ3 1-460): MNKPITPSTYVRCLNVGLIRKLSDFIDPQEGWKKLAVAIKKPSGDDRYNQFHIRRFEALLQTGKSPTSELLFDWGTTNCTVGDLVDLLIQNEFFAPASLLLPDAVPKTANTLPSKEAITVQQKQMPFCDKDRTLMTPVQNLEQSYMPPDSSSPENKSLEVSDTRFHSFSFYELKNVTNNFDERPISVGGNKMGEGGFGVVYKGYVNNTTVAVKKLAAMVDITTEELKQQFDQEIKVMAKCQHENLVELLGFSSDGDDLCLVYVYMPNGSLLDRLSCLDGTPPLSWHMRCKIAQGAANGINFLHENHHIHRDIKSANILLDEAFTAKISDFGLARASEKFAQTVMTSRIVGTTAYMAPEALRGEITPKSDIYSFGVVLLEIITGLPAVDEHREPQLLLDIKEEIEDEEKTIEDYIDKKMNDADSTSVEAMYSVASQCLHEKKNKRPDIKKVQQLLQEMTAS
The test can be described thus: Nanosyn kinase profiling. Type of test: biochemical. The following applies: read-out: Percentage inhibition; for inhibition at 0.1 µM: 0.1 µM inhibitor; for inhibition at 1 µM: 1 µM inhibitor. On the procedure:
as §1, §2

The next test deals with T4, IRR (Homo sapiens, UniProt P14616).
T4 construct: purchased Nanosyn (enzymatic panel); SGC in-house recombinant human kinases (DSF panel); Invitrogen (ALK1-6)
The experiment in a line: Nanosyn kinase profiling. Type of test: biochemical. The following applies: read-out: Percentage inhibition; for inhibition at 0.1 µM: 0.1 µM inhibitor; for inhibition at 1 µM: 1 µM inhibitor. On the procedure: as §1, §2

Another test has as its target T5, MER (Homo sapiens, UniProt Q12866).
T5 construct: purchased Nanosyn (enzymatic panel); SGC in-house recombinant human kinases (DSF panel); Invitrogen (ALK1-6)
T5 sequence (Q12866 21-999): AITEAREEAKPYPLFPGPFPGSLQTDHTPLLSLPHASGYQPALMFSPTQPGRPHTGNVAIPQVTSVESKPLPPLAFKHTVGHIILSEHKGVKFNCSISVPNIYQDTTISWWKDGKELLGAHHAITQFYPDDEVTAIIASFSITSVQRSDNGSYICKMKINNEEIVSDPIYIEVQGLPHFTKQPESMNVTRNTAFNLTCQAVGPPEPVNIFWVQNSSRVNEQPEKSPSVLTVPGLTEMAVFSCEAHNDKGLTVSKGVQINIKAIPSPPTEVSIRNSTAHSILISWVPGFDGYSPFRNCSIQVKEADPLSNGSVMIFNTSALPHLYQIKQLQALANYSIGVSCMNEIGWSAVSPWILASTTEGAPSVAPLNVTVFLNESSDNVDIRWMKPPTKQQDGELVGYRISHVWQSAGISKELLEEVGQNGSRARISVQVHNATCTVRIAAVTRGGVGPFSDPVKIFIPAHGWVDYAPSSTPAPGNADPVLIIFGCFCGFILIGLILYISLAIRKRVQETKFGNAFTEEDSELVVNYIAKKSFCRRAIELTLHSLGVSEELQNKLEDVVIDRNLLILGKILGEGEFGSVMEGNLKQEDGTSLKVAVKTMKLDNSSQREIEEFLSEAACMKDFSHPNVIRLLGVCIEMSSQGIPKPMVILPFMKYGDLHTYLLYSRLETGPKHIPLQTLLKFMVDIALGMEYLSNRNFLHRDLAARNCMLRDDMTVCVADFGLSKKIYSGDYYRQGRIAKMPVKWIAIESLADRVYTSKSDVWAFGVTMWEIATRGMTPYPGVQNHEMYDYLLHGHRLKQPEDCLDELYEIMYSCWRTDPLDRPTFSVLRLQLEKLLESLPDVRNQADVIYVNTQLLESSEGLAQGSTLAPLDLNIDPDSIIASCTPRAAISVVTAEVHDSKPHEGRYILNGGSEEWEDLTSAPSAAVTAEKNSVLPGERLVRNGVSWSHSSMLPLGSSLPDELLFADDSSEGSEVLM
The test can be described thus: Nanosyn kinase profiling. Type of test: biochemical. The conditions noted are these: read-out: Percentage inhibition; for inhibition at 0.1 µM: 0.1 µM inhibitor; for inhibition at 1 µM: 1 µM inhibitor. Here is the method:
as §1, §2

The test system of the next test is SIK. The test can be described thus: Nanosyn kinase profiling. Type of test: biochemical, human. On the procedure:
as §1, §2

The target of another test is ActRIIA (ACVR2) (Homo sapiens, UniProt P27037). The test can be described thus: Kinase-Glo assay. Type of test: biochemical. The following applies: at the Km value of ATP, duplicate. On the procedure:
A kinase assay for ActRIIA (ACVR2) was performed using Kinase-Glo® (Promega) as per manufacturer’s instructions. […] Inhibitors were added at concentrations between 0 and 10 µM in kinase reaction buffer and tested in duplicate. At 15 min, 30 min, 1 hr, 2 hr, and 3 hr 20 µL aliquots of the reaction mixture was transferred to a 384-well plate and 20 µL of Kinase-Glo® was added and allowed to rest for 10 min to quench the reaction and produce light which was measured using a Spectramax L luminometer (Molecular Devices).

What is called inhibition is the relative decrease from the control value, in per cent. The term IC50 denotes the concentration that inhibits the measured activity by half. Read a low IC50 as greater potency.

Several values for one entry are separate records, joined by “and”; a condition that tells them apart may be missing. Identical values can stand only once.

T4 sequence (P14616 27-1297): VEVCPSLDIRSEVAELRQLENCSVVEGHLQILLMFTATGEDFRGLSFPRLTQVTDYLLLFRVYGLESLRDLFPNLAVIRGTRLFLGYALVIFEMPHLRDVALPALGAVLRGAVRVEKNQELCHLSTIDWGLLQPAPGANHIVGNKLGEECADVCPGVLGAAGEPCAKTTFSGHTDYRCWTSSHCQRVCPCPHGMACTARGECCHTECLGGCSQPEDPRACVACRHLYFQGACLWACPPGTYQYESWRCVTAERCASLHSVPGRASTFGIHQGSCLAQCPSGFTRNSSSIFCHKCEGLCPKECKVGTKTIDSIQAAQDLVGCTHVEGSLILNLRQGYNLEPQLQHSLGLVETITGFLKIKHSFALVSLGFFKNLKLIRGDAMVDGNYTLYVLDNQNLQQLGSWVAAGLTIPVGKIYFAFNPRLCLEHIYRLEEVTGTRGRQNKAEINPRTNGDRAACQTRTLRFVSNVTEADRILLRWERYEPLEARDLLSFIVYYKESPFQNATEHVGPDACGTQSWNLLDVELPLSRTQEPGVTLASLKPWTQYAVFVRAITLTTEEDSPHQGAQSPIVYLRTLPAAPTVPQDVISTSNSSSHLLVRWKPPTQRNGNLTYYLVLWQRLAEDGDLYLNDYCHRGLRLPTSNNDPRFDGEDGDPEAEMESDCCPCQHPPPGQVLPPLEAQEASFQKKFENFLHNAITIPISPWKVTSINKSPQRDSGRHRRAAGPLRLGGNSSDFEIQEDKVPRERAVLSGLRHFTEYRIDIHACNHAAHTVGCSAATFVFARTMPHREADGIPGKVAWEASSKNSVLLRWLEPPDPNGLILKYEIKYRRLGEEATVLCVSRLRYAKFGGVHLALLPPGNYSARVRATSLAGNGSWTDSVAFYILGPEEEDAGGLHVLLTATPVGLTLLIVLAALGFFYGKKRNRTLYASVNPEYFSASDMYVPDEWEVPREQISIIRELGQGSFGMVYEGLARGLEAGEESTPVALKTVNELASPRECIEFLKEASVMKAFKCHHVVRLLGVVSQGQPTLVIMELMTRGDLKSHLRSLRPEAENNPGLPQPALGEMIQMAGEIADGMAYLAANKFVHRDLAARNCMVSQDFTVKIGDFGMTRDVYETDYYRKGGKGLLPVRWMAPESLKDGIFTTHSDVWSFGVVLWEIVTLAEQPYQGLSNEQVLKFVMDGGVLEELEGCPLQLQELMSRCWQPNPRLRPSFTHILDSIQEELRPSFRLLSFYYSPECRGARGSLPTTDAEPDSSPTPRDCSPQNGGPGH
T1 sequence (P68400 whole entry): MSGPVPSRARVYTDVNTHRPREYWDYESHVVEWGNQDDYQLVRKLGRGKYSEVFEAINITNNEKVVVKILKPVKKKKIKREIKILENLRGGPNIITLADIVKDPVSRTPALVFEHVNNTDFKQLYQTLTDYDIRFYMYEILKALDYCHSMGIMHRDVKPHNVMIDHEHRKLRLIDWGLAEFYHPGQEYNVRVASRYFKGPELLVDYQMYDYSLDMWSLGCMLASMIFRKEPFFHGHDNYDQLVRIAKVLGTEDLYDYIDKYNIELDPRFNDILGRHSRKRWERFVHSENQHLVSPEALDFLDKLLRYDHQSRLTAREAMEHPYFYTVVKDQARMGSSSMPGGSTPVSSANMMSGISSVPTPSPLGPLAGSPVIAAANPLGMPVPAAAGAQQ
T1 sequence (P67870 whole entry partner): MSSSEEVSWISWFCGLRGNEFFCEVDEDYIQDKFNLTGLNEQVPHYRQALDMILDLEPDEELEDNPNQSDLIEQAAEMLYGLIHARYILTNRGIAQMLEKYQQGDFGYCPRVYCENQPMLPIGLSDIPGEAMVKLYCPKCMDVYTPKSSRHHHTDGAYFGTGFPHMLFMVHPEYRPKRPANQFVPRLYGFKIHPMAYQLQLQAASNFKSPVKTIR
ActRIIA (ACVR2), sequence (P27037 20-513): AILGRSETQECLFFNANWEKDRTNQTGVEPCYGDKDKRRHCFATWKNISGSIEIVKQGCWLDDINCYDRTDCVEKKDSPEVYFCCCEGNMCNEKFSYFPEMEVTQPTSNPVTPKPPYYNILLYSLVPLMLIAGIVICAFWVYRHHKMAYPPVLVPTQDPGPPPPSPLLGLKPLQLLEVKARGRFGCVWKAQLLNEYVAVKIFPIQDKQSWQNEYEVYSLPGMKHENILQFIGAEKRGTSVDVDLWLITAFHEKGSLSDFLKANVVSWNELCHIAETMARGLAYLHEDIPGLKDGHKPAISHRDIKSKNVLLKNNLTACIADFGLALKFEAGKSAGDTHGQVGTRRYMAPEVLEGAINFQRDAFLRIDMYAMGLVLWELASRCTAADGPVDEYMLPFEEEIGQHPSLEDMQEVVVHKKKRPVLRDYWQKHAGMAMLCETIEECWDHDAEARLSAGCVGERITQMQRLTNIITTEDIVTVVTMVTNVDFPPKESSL

In the case of `c1ccc2c(-c3cnn4cc(-c5ccc(N6CCNCC6)cc5)cnc34)ccnc2c1` [LDN-193189], the inhibition at 0.1 µM was 0.7% at CK2; 3% at IKK-α; 0.7% on IRAK4; 1.9% on IRR; 4.4% at MER. The inhibition at 1 µM on CK2 is 4.2%; on IKK-α it was -2%; on IRAK4 it was 1.9%; at IRR it was 2.2%; on MER, 10%. Moreover, the Percentage inhibition was 63% and > 50% in the test on SIK (0.1 µM inhibitor, 0.1 µM); 96% in the test with SIK (1 µM inhibitor). The same compound gave an IC50 against ActRIIA (ACVR2) of 210 nM.
In the case of `COc1cc(-c2cc(-c3cccc(O)c3)cnc2N)cc(OC)c1OC` [K02288, 3-[6-amino-5-(3,4,5-trimethoxy-phenyl)-pyridin-3-yl]-phenol], the inhibition at 0.1 µM was 6.2% at CK2; 7.4% on IKK-α; -1% at IRAK4; -1% on IRR; 5.1% at MER. Moreover, the inhibition at 1 µM at CK2 was 2.8%; on IKK-α it was 2.7%; at IRAK4 it was 0.3%; at IRR it was -1%; at MER, 40%. Besides, the Percentage inhibition came to 9.4% with SIK (0.1 µM inhibitor) and 57% with SIK (1 µM inhibitor). Also, inhibition against ActRIIA (ACVR2) was half-maximal at 220 nM (IC50).
